Laboratory results from article PMC8467576, “Novel Ubiquitin Specific Protease-13 Inhibitors Alleviate Neurodegenerative Pathology” (Metabolites, 2021).

How the values were obtained:
[1] = system: SH-SY5Y human neuroblastoma cells; test: LDH and MTT cell viability assays; type: cell-based; details: 5 h; for concentration near and above which cell viability decreased: compared to DMSO or untreated controls; for cell toxicity: range of concentrations studied (0.001 µM to 1 mM)
Procedure: BK50118-B and BK50118-C (Figure 2C,D) decreased cell viability near and above 100 μM compared to DMSO or untreated controls. CL3-499 (Figure 2G) decreased cell viability near and above 1 mM compared to DMSO or untreated controls.
(§1) SH-SY5Y cells were transiently transfected for 24 h with human wild-type α-synuclein using Fugene HD transfection reagent (Promega, E2311, Madison, WI, USA) according to manufacturer’s protocol. Cells were treated with 1 mM, 0.1 mM, 0.01 mM, 1 µM, 0.1 µM, 0.01 µM and 0.001 µM of each novel compounds (BK50118-A, BK50118-B, BK50118-C, CL3-499, CL3-512 and CL3-514) dissolved in DMSO for 5 h. Cells were then harvested on ice by removing culture medium and adding 0.2 mL 1x sodium-tris, EDTA, NP-40 (STEN) buffer (50 mM Tris (pH 7.6), 150 mM NaCl, 2 mM EDTA, 0.2 % NP-40, 0.2 % with Halt protease and phosphatase inhibitor solution (ThermoFisher, 78446). Cells were detached with a cell scraper and collected into centrifuge tubes and incubated at 4 °C for 30 min with agitation. Samples were stored at −80 °C and used for ELISA analyses. For cell viability assay, SHSY-5Y cells stably expressing human wild-type alpha-synuclein were treated with 1 mM, 0.1 mM, 0.01 mM, 1 µM, 0.1 µM, 0.01 µM and 0.001 µM of each novel compound (BK50118-A, BK50118-B, BK50118-C, CL3-499, CL3-512 and CL3-514) dissolved in DMSO for 5 h. Cell viability was determined via lactate dehydrogenase assay on culture media (Thermofisher, 88954) and MTT assay on plated cells (Thermofisher, V13154).

[2] = molecular target: T1, USP13 (Homo sapiens, UniProt Q92995); test: USP13 activity via functional ELISA in alpha-synuclein transfected SH-SY5Y cells; type: cell-based; details: SH-SY5Y cells transfected with human alpha-synuclein, 5 h, read-out: Estimated IC50 to USP13
T1 construct: ELISA for USP13 (MyBioSource, Cat # MBS9335287, San Diego, CA, USA); endogenous in cells; host or cells: human SH-SY5Y neuroblastoma cells transfected with human wild-type alpha-synuclein
T1 sequence (Q92995 1-863): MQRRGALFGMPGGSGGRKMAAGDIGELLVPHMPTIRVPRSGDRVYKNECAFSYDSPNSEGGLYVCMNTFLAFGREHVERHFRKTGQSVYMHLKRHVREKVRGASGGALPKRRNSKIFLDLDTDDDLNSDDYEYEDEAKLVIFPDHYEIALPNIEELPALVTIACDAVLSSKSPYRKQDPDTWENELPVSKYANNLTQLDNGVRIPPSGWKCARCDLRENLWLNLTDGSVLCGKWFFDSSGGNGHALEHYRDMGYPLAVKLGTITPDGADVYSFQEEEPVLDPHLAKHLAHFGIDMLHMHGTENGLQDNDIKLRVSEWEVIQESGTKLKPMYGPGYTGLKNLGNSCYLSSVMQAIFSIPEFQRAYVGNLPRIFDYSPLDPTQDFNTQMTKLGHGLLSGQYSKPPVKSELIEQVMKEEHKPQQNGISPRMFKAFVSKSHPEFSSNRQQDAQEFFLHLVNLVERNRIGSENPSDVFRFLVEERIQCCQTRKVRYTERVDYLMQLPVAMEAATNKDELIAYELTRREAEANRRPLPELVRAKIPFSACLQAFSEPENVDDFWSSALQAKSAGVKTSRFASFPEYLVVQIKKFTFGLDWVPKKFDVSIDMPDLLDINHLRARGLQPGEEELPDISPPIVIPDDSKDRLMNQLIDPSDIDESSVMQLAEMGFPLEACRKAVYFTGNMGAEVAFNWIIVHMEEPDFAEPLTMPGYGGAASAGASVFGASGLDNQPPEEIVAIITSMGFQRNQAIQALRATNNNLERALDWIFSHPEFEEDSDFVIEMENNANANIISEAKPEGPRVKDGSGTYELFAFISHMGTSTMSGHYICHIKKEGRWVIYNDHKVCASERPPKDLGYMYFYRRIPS
Procedure: Stably transfected human neuroblastoma SH-SY5Y cells with human wild-type alpha-synuclein were treated with 1 mM, 100 µM, 10 µM, 1 µM, 0.1 µM, 0.01 µM and 0.001 µM of each of BK50118-A, BK50118-B, BK50118-C, CL3-499, CL3-512 and CL3-514 dissolved in an equivalent volume of DMSO for 5 h. […] The other 5 compounds were also able to lower alpha-synuclein levels but with less potency (Figure 3H,I,K–M).
as §1
The ELISA for USP13 (MyBioSource, Cat # MBS9335287, San Diego, CA, USA), Human alpha-synuclein (Biolegend, Cat # 844101, San Diego, CA, USA) and specific p-Tau ser396 (Invitrogen, KHB7031, Waltham, MA, USA) were performed on cell or brain tissue extracts as described above according to manufacturers’ protocol.
All statistical analyses were performed using GraphPad Prism version 5.0 (GraphPad software, Inc, San Diego, CA, USA). Two-tailed student’s t-test was used in comparison of means of two groups. Ordinary one-way analysis of variance (ANOVA) followed by Newman–Keuls or Dunnett comparison post hoc tests were used in comparison of means of multiple groups. Asterisks denote actual p-value significances (* < 0.05, ** < 0.01, *** < 0.001 and **** < 0.0001), and N is the number of animals or the number of independent experiments (cell culture) per group. Unless otherwise indicated, data are expressed as Mean ± SD. IC50 to USP13 levels was also estimated using GraphPad Prism version 5.0 (GraphPad software, Inc, San Diego, CA, USA).

[3] = system: USP13; parameters: method as in PMID 21962518; details: cited from earlier work
[4] = system: USP10; parameters: method as in PMID 21962518; details: cited from earlier work
[5] = parameters: method as in PMID 21962518; details: cited from earlier work

Structure (SMILES)	concentration near and above which cell viability decreased [1] [µM]	IC50 [2] [pM]	cell toxicity [1]	IC50 [3] [pM]	IC50 [4] [pM]	blood-brain barrier (BBB) penetration [5]
c1ccc(Nc2ccnc3ccsc23)cc1 [BK50118-A, N-phenylthieno[3,2-b]pyridin-7-amine]	≥ 0.1	110	–	–	–	–
Fc1ccc2nccc(Nc3ccccc3)c2c1 [BK50118-B, 6-fluoro-N-phenylquinolin-4-amine]	≥ 100	2130	–	–	–	–
Fc1ccc2nccc(NCc3ccccc3)c2c1 [CL3-499, N-benzyl-6-fluoroquinolin-4-amine]	≥ 1000	290	–	–	–	–
COC(=O)[C@H](Cc1ccccc1)Nc1c([N+](=O)[O-])c(=O)oc2ccccc12 [CL3-512, (S)-methyl (3-nitro-2-oxo-2H-chromen-4-yl)-phenylalaninate]	–	270	did not show cell toxicity	–	–	–
COC(=O)[C@H](Cc1ccc(O)cc1)Nc1c([N+](=O)[O-])c(=O)oc2ccccc12 [CL3-514, (S)-methyl (3-nitro-2-oxo-2H-chromen-4-yl)-tyrosinate]	–	610	did not show cell toxicity	–	–	–
Fc1ccc(CNc2ncnc3ccc(F)cc23)cc1 [Spautin-1]	–	–	–	600000 to 700000	600000 to 700000	does not cross the blood–brain barrier (BBB)
